Among the data in ChEMBL document CHEMBL2163222 (J Med Chem, 2012) are IC50 values, retold here.

pIC50: −log10 of the molar value.

Broadly, the pIC50 is the IC50 on a negative log10 scale, so that one unit is a factor of ten.

A short description of one assay: cells. To be noted: Homo sapiens, U373 MG, 72 h.
The next assay deals with Hs 683. Briefly: cells. To be noted: Homo sapiens, Hs 683, 72 h.
The subject of the next assay is T98G. Put plainly: cells. Conditions: Homo sapiens, 72 h.
Assay [1] in a line: Growth inhibition of human OE21 cells after 3 days by MTT assay. The class given is functional, cell-based. To be noted: OE21, 72 h.
Another assay deals with OE33. Briefly: Growth inhibition of human OE33 cells after 3 days by MTT assay. It counts as functional, cell-based. To be noted: OE33, 72 h. Background: Tetrazolium dyes change colour on reduction, which living cells bring about.

Regarding `Cc1c2c(cc[n+]1CCO)c1ccc(OCC3CCCCC3)cc1n2CC1CCCCC1`, the pIC50 in “cells” was 5.77; in the assay with Hs 683, 5.42; in the assay on T98G it was 5.59.

With `CCC[n+]1ccc2c3ccc(OCc4ccccc4)cc3n(Cc3ccccc3)c2c1C`, the pIC50 in the assay “cells” was 5.60; in assay [1] it was 5.47; in the assay on Hs 683, 6.22; in the assay on T98G, 4.96.

As to `Cc1c2c(cc[n+]1Cc1ccccc1F)c1ccc(OCc3cccc(F)c3)cc1n2Cc1cccc(F)c1`, the pIC50 in “cells” is 6.22; in assay [1], 5.85; in the assay with OE33 it was 5.52; in the assay with Hs 683, 5.66; in the assay with T98G it was 6.15.

On to `Cc1c2c(cc[n+]1CCc1ccccc1)c1ccc(OCc3ccccc3)cc1n2Cc1ccccc1`, for which the negative logarithm of the IC50 (pIC50) in the assay “cells” was 5.70; in assay [1], 5.62; with Hs 683, 5.64; in the assay with T98G, 5.62.

In the case of `Cc1nccc2c1[nH]c1cc(OCC3CCCCC3)ccc12`, the pIC50 is 5.12 in “cells”; 5.08 in assay [1]; 5.09 in the assay with OE33; 4.66 with Hs 683; 5.14 in the assay on T98G.

Regarding `Cc1nccc2c1[nH]c1cc(OCCc3ccccc3)ccc12`, the pIC50 was 5.04 in the assay “cells”; 4.85 in assay [1]; 5.10 with OE33; 4.68 in the assay with Hs 683; 4.68 in the assay on T98G.

Consider `COc1ccc2c(c1)[nH]c1c(C)nccc12` [HARMINE], for which the pIC50 in the assay “cells” was 4.49; in assay [1], 4.49; with OE33, 4.74; with T98G, 4.62.

For the compound `CCCn1c2cc(OCc3ccccc3)ccc2c2cc[n+](Cc3ccc(F)cc3)c(C)c21`, the pIC50 in the assay “cells” was 6.06; in assay [1] it was 5.72; in the assay with OE33, 6.00; with Hs 683, 5.51; with T98G, 5.24.

On to `Cc1c2c(cc[n+]1Cc1ccccc1F)c1ccc(OCc3ccccc3)cc1n2Cc1ccccc1`, for which the pIC50 was 6.30 in the assay “cells”; 6.42 in assay [1]; 6.15 in the assay with OE33; 6.36 with Hs 683; 6.43 in the assay with T98G.

On to `Cc1c2c(cc[n+]1Cc1ccccc1)c1ccc(OCc3cccc(F)c3)cc1n2Cc1cccc(F)c1`, for which the pIC50 in “cells” is 6.10; in assay [1] it was 6.40; in the assay with OE33, 5.54; with Hs 683, 5.55; in the assay on T98G, 6.01.

For the compound `Cc1nccc2c1[nH]c1cc(OCc3ccccn3)ccc12`, the pIC50 in the assay “cells” was 4.68; in assay [1], 4.80; in the assay on OE33, 4.64; with Hs 683, 4.70; with T98G, 4.70.

On to `Cc1c2c(cc[n+]1Cc1ccc(F)cc1)c1ccc(OCc3ccccc3)cc1n2Cc1ccccc1`, for which the pIC50 in the assay “cells” was 6.22; in assay [1] it was 6.21; in the assay on OE33, 5.62; in the assay with Hs 683 it was 5.80; in the assay with T98G, 6.22.

`CCCn1c2cc(OCc3ccccc3)ccc2c2ccnc(C)c21`: the pIC50 in the assay “cells” is 4.59; in assay [1], 4.64; with OE33 it was 5.05; with Hs 683 it was 4.89; with T98G, 4.47.

As to `Cc1c2c(cc[n+]1CCc1ccccc1)c1ccc(OCCC(C)C)cc1n2CCC(C)C`, the negative-log IC50 (pIC50) is 5.47 in “cells”, 5.43 in assay [1], 5.51 with Hs 683 and 5.46 with T98G.

Take `Cc1nccc2c1[nH]c1cc(OCc3cccc4ccccc34)ccc12`: the pIC50 in the assay “cells” is 5.13; in assay [1], 4.48; with OE33, 5.09; with Hs 683, 4.72; in the assay with T98G, 4.92.

In the case of `Cc1c2c(cc[n+]1CCC(C)C)c1ccc(OCCC(C)C)cc1n2CCC(C)C`, the pIC50 was 6.66 in “cells”, 6.32 in assay [1], 6.59 in the assay with Hs 683 and 6.39 in the assay on T98G.

On to `CCCn1c2cc(OCc3ccccc3)ccc2c2cc[n+](Cc3ccccc3F)c(C)c21`, for which the pIC50 in the assay “cells” is 6.41; in assay [1], 6.38; in the assay with OE33, 6.60; with Hs 683 it was 6.35; in the assay with T98G it was 5.74.

In the case of `Cc1c2c(cc[n+]1Cc1ccccc1)c1ccc(OCCC(C)C)cc1n2CCC(C)C`, the values for the negative logarithm of the IC50 (pIC50) in the assay “cells”, in the assay with Hs 683 and in the assay on T98G were 6.42, 6.33 and 6.22, respectively.

As for `Cc1nccc2c1[nH]c1cc(OCc3ccccc3)ccc12`, the negative-log IC50 (pIC50) in “cells” is 5.03; in assay [1] it was 4.68; in the assay on OE33, 5.39; in the assay with Hs 683, 4.77; with T98G, 4.77.

Turning to `Cc1nccc2c3ccc(O)cc3n(Cc3ccccc3)c12`, the pIC50 in “cells” was 4.10; in assay [1], 4.46; in the assay with OE33 it was 4.46; in the assay on Hs 683, 4.10; in the assay on T98G, 4.09.

Take `Cc1c2c(cc[n+]1Cc1ccccc1)c1ccc(OCc3ccc(F)cc3)cc1n2Cc1ccc(F)cc1`: the negative logarithm of the IC50 (pIC50) is 6.37 in the assay “cells”; 6.30 in assay [1]; 5.85 with OE33; 6.05 in the assay with Hs 683; 6.40 in the assay on T98G.

Regarding `Cc1c2c(cc[n+]1Cc1ccc(F)cc1)c1ccc(OCC3CCCCC3)cc1n2CC1CCCCC1`, the pIC50 was 7.40 in “cells”; 5.85 in assay [1]; 6.00 in the assay on OE33; 5.51 in the assay with Hs 683; 5.70 in the assay with T98G.

For `Cc1nccc2c1[nH]c1cc(OCCCC(F)(F)F)ccc12`, the pIC50 was less than 4.00 in “cells”; less than 4.00 in assay [1]; less than 4.00 in the assay on OE33; less than 4.00 in the assay with Hs 683; 4.07 in the assay with T98G.

With `Cc1c2c(cc[n+]1CCO)c1ccc(OCc3ccccc3)cc1n2Cc1ccccc1`, the pIC50 in “cells” was 5.05; in assay [1], 4.60; in the assay with Hs 683, 4.51; in the assay with T98G, 4.21.

As for `Cc1c2c(cc[n+]1CCC(C)C)c1ccc(OCc3ccccc3)cc1n2Cc1ccccc1`, the negative logarithm of the IC50 (pIC50) is 6.41 in “cells”, 6.30 in assay [1], 6.43 with Hs 683 and 5.92 in the assay with T98G.

Consider `Cc1nccc2c1[nH]c1cc(OCC(C)C)ccc12`, for which the pIC50 is 4.62 in “cells”; 4.92 in assay [1]; 4.60 in the assay with OE33; 4.64 in the assay with Hs 683; 4.66 in the assay with T98G.

In the case of `Cc1nccc2c3ccc(OCCC(C)C)cc3n(CCC(C)C)c12`, the pIC50 in “cells” was 4.48; in assay [1], 4.52; in the assay on Hs 683, 4.52; with T98G it was 4.46.

On to `Cc1c2c(cc[n+]1CCC(C)C)c1ccc(OCC3CCCCC3)cc1n2CC1CCCCC1`, for which the results for the pIC50 in the assay “cells”, in the assay on Hs 683 and in the assay on T98G were 6.40, 6.38 and 6.37, respectively.

Turning to `Cc1c2c(cc[n+]1Cc1ccccc1F)c1ccc(OCc3ccc(F)cc3)cc1n2Cc1ccc(F)cc1`, the negative logarithm of the IC50 (pIC50) in the assay “cells” was 6.30; in assay [1], 5.80; in the assay with OE33 it was 5.80; in the assay on Hs 683, 5.92; in the assay on T98G, 6.37.

`Cc1c2c(cc[n+]1CCO)c1ccc(OCCC(C)C)cc1n2CCC(C)C`: the pIC50 in “cells” is 5.60; in assay [1], 5.12; in the assay with Hs 683, 5.40; with T98G, 5.54.

Turning to `Cc1c2[nH]c3cc(OCc4ccccc4)ccc3c2cc[n+]1Cc1ccccc1`, the pIC50 in the assay “cells” is 5.41; in assay [1], 5.22; in the assay on OE33, 5.26; in the assay on Hs 683 it was 5.44; with T98G, 5.25.

As to `Cc1c2c(cc[n+]1Cc1ccccc1F)c1ccc(OCC3CCCCC3)cc1n2CC1CCCCC1`, the pIC50 in “cells” is 5.85; in assay [1], 6.46; in the assay on OE33 it was 6.46; in the assay on Hs 683 it was 6.60; in the assay with T98G, 7.15.

Take `Cc1nccc2c3ccc(OCc4cccc(F)c4)cc3n(Cc3cccc(F)c3)c12`: the negative-log IC50 (pIC50) was 6.40 in “cells”; 5.10 in assay [1]; 4.80 with OE33; 4.74 in the assay with Hs 683; 4.57 in the assay with T98G.

On to `Cc1nccc2c1[nH]c1cc(OCCO)ccc12`, for which the negative logarithm of the IC50 (pIC50) in “cells” is 4.38; in assay [1], 4.52; with OE33 it was 4.20; in the assay on Hs 683, 4.39; in the assay with T98G, 4.28.

Consider `CCCCCC[n+]1ccc2c3ccc(OCc4ccccc4)cc3n(Cc3ccccc3)c2c1C`, for which the pIC50 is 6.15 in the assay “cells”, 5.72 in assay [1], 6.22 in the assay with Hs 683 and 5.51 with T98G.

On to `Cc1c2c(cc[n+]1CCc1ccccc1)c1ccc(OCC3CCCCC3)cc1n2CC1CCCCC1`, for which the values for the pIC50 in the assay “cells”, in the assay on Hs 683 and in the assay on T98G were 6.70, 6.51 and 6.59, respectively.

With `CCCn1c2cc(OCc3ccccc3)ccc2c2cc[n+](Cc3ccccc3)c(C)c21`, the pIC50 in the assay “cells” is 6.39; in assay [1] it was 6.24; in the assay on OE33, 6.52; in the assay with Hs 683, 5.59; in the assay with T98G it was 5.77.

`Cc1nccc2c3ccc(OCc4ccc(F)cc4)cc3n(Cc3ccc(F)cc3)c12`: the pIC50 in “cells” is 4.52; in assay [1], 4.82; in the assay on OE33, 4.60; in the assay on Hs 683, 4.77; with T98G it was 4.85.

In the case of `Cc1nccc2c1[nH]c1cc(OC(=O)c3ccccc3)ccc12`, the pIC50 is 4.57 in “cells”; 4.52 in assay [1]; 4.51 with OE33; 4.28 in the assay with Hs 683; 4.38 in the assay with T98G.

As for `C=CCOc1ccc2c(c1)[nH]c1c(C)nccc12`, the pIC50 is 4.49 in the assay “cells”; 4.57 in assay [1]; 4.52 in the assay on OE33; 4.55 with Hs 683; 4.49 with T98G.

Consider `Cc1nccc2c1[nH]c1cc(OCc3ccncc3)ccc12`, for which the negative logarithm of the IC50 (pIC50) in “cells” is 5.60; in assay [1], 5.30; in the assay on OE33 it was 5.20; with Hs 683 it was 5.09; with T98G, 5.44.
